Assay results reported in patent US20230250436A1, “NUCLEIC ACID THAT INTERACTS WITH A RECEPTOR FOR ENDOCRINE DISRUPTING CHEMICALS AND USE THEREOF” (KUMIAI CHEMICAL INDUSTRY CO., LTD., priority 2020, published 2023).

Experiments:
Assay type in all cases: cell-based
[1] = system: juvenile hormone receptor of Daphnia magna (DampaMET); assay: Yeast reporter (β-galactosidase) assay, transformants with DampaMET and DampaSRC; set-up: key to Increase in induction: increase of induction; positive value = reporter activity to substance
Method: (§1) Subsequently, a reporter plasmid prepared by inserting the nucleotide sequence shown in SEQ ID NO: 2 into a yeast comprising the DampaMET plasmid and the DampaSRC plasmid introduced thereinto by the lithium acetate method. Thus, Yeast 1 of Invention was obtained. In the same manner, Yeasts 2 to 38 of Invention each comprising the response element according to the present invention and Control yeasts 1 to 9 shown in Table 3 were prepared.
(§2) With the use of the Yeast 1 of Invention, reporter activity to methyl farnesoate as a juvenile hormone substance was measured. At the outset, the Yeast 1 of Invention was subjected to pre-culture at 30° C. for 18 hours using the pre-culture medium shown in Table 1 until the turbidity (O.D. 595) of the pre-culture medium reached approximately 0.1. The solution of the pre-cultured cells (10 μl) and 1 μl of the solution of methyl farnesoate diluted to various concentrations with dimethyl sulfoxide (DMSO) were mixed with 90 μl of the main culture solution shown in Table 4 in a 96-well plate, and the mixture was subjected to static culture at 30° C. for 18 hours to prepare a reaction solution. The resultant was designated as a test group.
(§3) A reaction solution prepared with the addition of 1 μl of DMSO instead of a diluted methyl farnesoate solution was designated as a control group. Fractions of 10 μl each were collected from the reaction solutions and dispensed into each well of another 96-well plate. Thereafter, 100 μl of an assay reagent comprising a lytic solution (Z buffer: 60 mM Na2HPO4, 40 mM NaH2PO4, 1 mM MgCl2, 10 mM KCl, 2 mM dithiothreitol, 0.20% N-lauroylsarcosine sodium salt) mixed with 1 mg/ml ONPG (orthonitrophenylgalactopyranoside) was dispensed into each well, and the reaction was allowed to proceed at 37° C. for 30 minutes. Thereafter, the absorbance (O.D. 405) and the turbidity (O.D. 595) of the reaction solutions were assayed at the wavelength of 405 nm using a microplate reader (tradename: iMark microplate reader, Bio-Rad Laboratories). The increase of induction was calculated in accordance with the following formula.
(§4) The increase of induction is described in Ito-Harashima S et al., FEBS Open Bio., 7 (7): pp. 995-1008, 2017. When the increase of induction is positive, the transformant is determined to have reporter activity to the substance tested. The test was performed once or repeated 3 times, 5 times, or 15 times, and the average increase of induction was calculated. The control yeast 1 was treated in the same manner and reporter activity was compared.
In the same manner as in Test Example 1, the Yeasts 2, 3, 4, 5, 6, 7, 9, 10, 11, 12, 13, 14, 15, 16, 17, 18, 19, and 20 of Invention were subjected to assays of reporter activity to methyl farnesoate. The test was performed in accordance with Test Example 1, and reporter activity of the yeasts indicated above was compared with that of the control yeasts 2, 3, and 4.
With the use of the control yeast 7 comprising a different nucleotide sequence of the C-box (CACGCG) in the response element, the control yeast 8 comprising a different nucleotide sequence of the E-box (CACGTG), and the control yeast 9 comprising different nucleotide sequences of the C-box and the E-box from the relevant nucleotide sequences of the Yeast 4 of Invention, the influence of a core sequence on reporter activity to methyl farnesoate was evaluated. The test was performed in accordance with Test Example 1.
(§5) With the use of the Yeast 4 and the Yeast 8 of the present Invention, reporter activity to sex hormones; i.e., 17β-estradiol and testosterone, insect juvenile hormones; i.e., juvenile hormone III, and chemical substances suspected of having endocrine disrupting actions, such as 4-nonyl phenol, bisphenol A, 1,1,1-trichloro-2,2-bis(4-chlorophenyl)ethane (DDT), 2,2-bis(4-chlorophenyl)-1,1-dichloroethylene (DDE), and dieldrin, was assayed. The test was performed in accordance with Test Example 1. All the test substances were treated at 10 μM. […]

[2] = system: juvenile hormone receptor of Drosophila melanogaster (DmMET); assay: Yeast reporter (β-galactosidase) assay, transformants with DmMET and DmTai; conditions: test substance 10 μM
Method: A plasmid expressing a juvenile hormone receptor of Drosophila melanogaster (hereafter, referred to as a “DmMET plasmid”) was prepared in the same manner. At the outset, ORF of cDNA of the DmMET gene was amplified by PCR using, as a template, cDNA of Drosophila melanogaster larvae (Clontech) and the primers for DmMET: DmMET Fwd (SEQ ID NO: 21) and DmMET Rev (SEQ ID NO: 22). PCR was carried out by repeating a cycle of 98° C. for 10 seconds, 55° C. for 30 seconds, and 68° C. for 1.5 minutes 25 times.
as §1, §2, §3, §4
With the use of the Yeast 4 and the Yeast 8 of the present Invention, reporter activity to sex hormones; i.e., 17β-estradiol and testosterone, insect juvenile hormones; i.e., juvenile hormone III, and chemical substances suspected of having endocrine disrupting actions, such as 4-nonyl phenol, bisphenol A, 1,1,1-trichloro-2,2-bis(4-chlorophenyl)ethane (DDT), 2,2-bis(4-chlorophenyl)-1,1-dichloroethylene (DDE), and dieldrin, was assayed. The test was performed in accordance with Test Example 1. All the test substances were treated at 10 μM. For comparison, reporter activity to compounds was assayed using the control yeast 5 and the control yeast 6 comprising a known juvenile hormone receptor response element (i.e., the JH response element of Drosophila melanogaster) integrated therein.

[3] = system: juvenile hormone receptor of Daphnia magna (DampaMET); assay: Yeast reporter (β-galactosidase) assay, Control yeast 5 with DampaMET, DmTai and DmJHRR; conditions: Control yeast 5 (DmJHRR x3, DampaMET, DmTai), test substance 10 μM
Method: For further comparison, a plasmid comprising a region including the juvenile hormone response element of the Kr-hi gene of Drosophila melanogaster (DmJHRR) inserted thereinto was prepared. DmJHRR is described in He Q et al., J. Biol. Chem., 289 (40), pp. 27874-27885, 2014. A plasmid comprising 3 consecutive repeats of the DmJHRR sequence inserted thereinto was prepared in accordance with the method described above, except that oligo DNA comprising the DmJHRR sequence (SEQ ID NO: 15) was used instead of the oligo DNA shown in SEQ ID NO: 3 and oligo DNA partially complementary to SEQ ID NO: 15 (SEQ ID NO: 16) was used instead of the oligo DNA shown in SEQ ID NO: 4.
as §1, §2, §3, §4, §5

[4] = system: juvenile hormone receptor of Daphnia magna (DampaMET); assay: Yeast reporter assay for antagonist activity in the presence of 10 nM methyl farnesoate; conditions: Yeast 4 of Invention; test substance 10 μM in the presence of 10 nM methyl farnesoate; 0 = group treated with 10 nM methyl farnesoate
Method: as §2
A reaction solution prepared with the addition of 1 μl of DMSO instead of a diluted methyl farnesoate solution was designated as a control group. Fractions of 10 μl each were collected from the reaction solutions and dispensed into each well of another 96-well plate. […] Thereafter, the absorbance (O.D. 405) and the turbidity (O.D. 595) of the reaction solutions were assayed at the wavelength of 405 nm using a microplate reader (tradename: iMark microplate reader, Bio-Rad Laboratories). The increase of induction was calculated in accordance with the following formula.
as §4, with “The control yeast 1 was treated in the same manner and reporter activity was compared.” left out
With the use of the yeast 4 of the present invention, antagonist activity of juvenile hormone receptors to endrin, aldrin, and dieldrin was evaluated at 10 μM. […]

[5] = Yeast 4 of Invention (SEQ ID NO: 2 x4, DampaMET, DampaSRC), test substance 10 μM
[6] = Yeast 8 of Invention (SEQ ID NO: 2 x4, DmMET, DmTai)
[7] = Control yeast 6 (DmJHRR x3, DmMET, DmTai)
[8] = Yeast 4 of Invention (SEQ ID NO: 2 x4), test substance 100 μM

CCCCCCCCCc1ccc(O)cc1 [4-nonyl phenol]
Increase in induction [1, 5]: 2.16 | Increase in induction [2, 6]: 1.81

C[C@]12CC[C@@H]3c4ccc(O)cc4CC[C@H]3[C@@H]1CC[C@@H]2O [17β-estradiol]
Increase in induction [1, 5]: 1.97 | Increase in induction [2, 7]: −0.29 | Increase in induction [2, 6]: 1.01 | Increase in induction [3]: −0.14

ClC1=C(Cl)C2(Cl)C3C4C=CC(C4)C3C1(Cl)C2(Cl)Cl (stereo not shown) [Aldrin, aldrin]
Increase in induction (antagonist activity) [4]: −9.02

CC(C)OC(=O)N[C@H](C(=O)N[C@H](C)c1nc2ccc(F)cc2s1)C(C)C [Benthiavalicarb isopropyl, benthiavalicarb isopropyl]
Increase in induction [1, 8]: −0.37

CC(C)(c1ccc(O)cc1)c1ccc(O)cc1 [Bisphenol A, bisphenol A]
Increase in induction [1, 5]: 1.14 | Increase in induction [2, 7]: −0.23 | Increase in induction [2, 6]: 0.52 | Increase in induction [3]: −0.38

ClC(Cl)=C(c1ccc(Cl)cc1)c1ccc(Cl)cc1 [DDE, 2,2-bis(4-chlorophenyl)-1,1-dichloroethylene]
Increase in induction [1, 5]: 2.15 | Increase in induction [2, 7]: −0.19 | Increase in induction [2, 6]: 1.23 | Increase in induction [3]: −0.08

Clc1ccc(C(c2ccc(Cl)cc2)C(Cl)(Cl)Cl)cc1 [DDT, 1,1,1-trichloro-2,2-bis(4-chlorophenyl)ethane]
Increase in induction [1, 5]: 0.65 | Increase in induction [2, 7]: −0.24 | Increase in induction [2, 6]: 0.37 | Increase in induction [3]: −0.07

ClC1=C(Cl)[C@]2(Cl)[C@@H]3[C@@H]4C[C@@H]([C@H]5O[C@@H]45)[C@@H]3[C@@]1(Cl)C2(Cl)Cl [Dieldrin, dieldrin]
Increase in induction [1, 5]: 3.85 | Increase in induction [2, 7]: −0.02 | Increase in induction [2, 6]: 0.89 | Increase in induction [3]: 0.00 | Increase in induction (antagonist activity) [4]: −12.46

ClC1=C(Cl)C2(Cl)C3C4CC(C5OC45)C3C1(Cl)C2(Cl)Cl (stereo not shown) [Endrin, endrin]
Increase in induction (antagonist activity) [4]: −0.03

COc1ccc(-n2c(=O)c(C(=O)C3C(=O)CCCC3=O)nc3c(Cl)cccc32)cc1 [Fenquinotrione, fenquinotrione]
Increase in induction [1, 8]: −0.24

COC(=O)/C=C(\C)CC/C=C(\C)CC[C@H]1OC1(C)C [Juvenile hormone III, juvenile hormone III]
Increase in induction [1, 5]: 6.20 | Increase in induction [2, 7]: 0.58 | Increase in induction ([2]; Control yeast 6 (DmJHRR x3, DmMET, DmTai), listed as juvenile hormone III): induced | Increase in induction [2, 6]: 1.45 | Increase in induction [3]: 0.41 | Increase in induction ([3]; listed as juvenile hormone III): induced

CC#Cc1cc(C)nc(Nc2ccccc2)n1 [Mepanipyrim, mepanipyrim]
Increase in induction [1, 8]: −0.76

COC(=O)NCc1cc(/C(C)=N/OCc2cccc(C)n2)ccc1Cl [Pyribencarb, pyribencarb]
Increase in induction [1, 8]: −0.24

Cn1nc(C(F)(F)F)c(CS(=O)(=O)C2=NOC(C)(C)C2)c1OC(F)F [Pyroxasulfone, pyroxasulfone]
Increase in induction [1, 8]: −0.50

C[C@]12CC[C@H]3[C@@H](CCC4=CC(=O)CC[C@@]43C)[C@@H]1CC[C@@H]2O [Testosterone, testosterone]
Increase in induction [1, 5]: 1.78 | Increase in induction [2, 7]: −0.22 | Increase in induction [2, 6]: 0.98 | Increase in induction [3]: −0.02
